“And” between values parts separate entries of the source, which are not always exact repeats. Equal entries are not always repeated.

Assay [1] deals with T1, Serine/threonine-protein kinase WNK4 [1-444] (Homo sapiens, UniProt Q96J92).
T1 construct: 1-444
The experiment in a line: WNK In Vitro Radiometric Assays. Particulars: pH 7.3. As for the experimental part: (§1) The assay utilized 5 to 10 nM of WNK1−4 protein compared to 25 nM used for mobility shift assay, enabling a more accurate comparison of selectivity among potent inhibitors. Assays measured the incorporation of 33P from [γ-33P]ATP into myelin basic protein (MBP) coated in the wells of 96-well ScintiPlates (PerkinElmer). Each well of the MBP-coated ScintiPlates held 100 μL of a solution containing 20 mM HEPES at pH 7.3, 5 mM MnCl2 (WNK1 and WNK4) or 3 mM MnCl2 (WNK2 and WNK3), 0.01% Tween-20 (WNK1, WNK3, and WNK4) or 0.02% Tween-20 (WNK2), 1 mM TCEP, 2% DMSO, 1 μM ATP (WNK1, WNK3, and WNK4) or 2 μM ATP (WNK2), 1 μCi [γ -33P]ATP (WNK1, WNK2, WNK4) or 0.25 μCi [γ-33P]ATP (WNK3), WNK kinase enzyme (5 nM WNK1, 10 nM WNK2, 5 nM WNK3, or 10 nM WNK4), and the compound at the desired concentration. The plate was sealed and mixed for 20 s at 800 rpm on a benchtop plate shaker. The plate was then placed in a 25 °C shaking incubator at 175 rpm. Reactio

The target of assay [2] is T2, Serine/threonine-protein kinase WNK2 [166-489] (Homo sapiens, UniProt Q9Y3S1).
T2 construct: 166-489
T2 sequence (Q9Y3S1 166-489): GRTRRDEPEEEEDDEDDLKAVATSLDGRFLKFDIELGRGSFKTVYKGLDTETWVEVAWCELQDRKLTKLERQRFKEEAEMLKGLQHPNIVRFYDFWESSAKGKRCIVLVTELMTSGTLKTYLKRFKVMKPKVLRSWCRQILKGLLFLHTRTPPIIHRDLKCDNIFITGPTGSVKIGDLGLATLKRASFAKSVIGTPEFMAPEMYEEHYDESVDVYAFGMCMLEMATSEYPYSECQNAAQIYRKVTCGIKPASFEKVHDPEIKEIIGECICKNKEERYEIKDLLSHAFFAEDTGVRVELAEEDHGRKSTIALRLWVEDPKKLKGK
The experiment in a line: WNK In Vitro Radiometric Assays. The following applies: pH 7.3. As to the method:
as §1

Assay [3] addresses T3, Serine/threonine-protein kinase WNK1 [1-491] (Homo sapiens, UniProt Q9H4A3).
T3 construct: 1-491
The experiment in a line: WNK In Vitro Radiometric Assays. The following applies: pH 7.3. As to the method: as §1

For assay [4], the target named is T4, Serine/threonine-protein kinase WNK3 [1-434] (Homo sapiens, UniProt Q9BYP7).
T4 construct: 1-434
T4 sequence (Q9BYP7 1-434): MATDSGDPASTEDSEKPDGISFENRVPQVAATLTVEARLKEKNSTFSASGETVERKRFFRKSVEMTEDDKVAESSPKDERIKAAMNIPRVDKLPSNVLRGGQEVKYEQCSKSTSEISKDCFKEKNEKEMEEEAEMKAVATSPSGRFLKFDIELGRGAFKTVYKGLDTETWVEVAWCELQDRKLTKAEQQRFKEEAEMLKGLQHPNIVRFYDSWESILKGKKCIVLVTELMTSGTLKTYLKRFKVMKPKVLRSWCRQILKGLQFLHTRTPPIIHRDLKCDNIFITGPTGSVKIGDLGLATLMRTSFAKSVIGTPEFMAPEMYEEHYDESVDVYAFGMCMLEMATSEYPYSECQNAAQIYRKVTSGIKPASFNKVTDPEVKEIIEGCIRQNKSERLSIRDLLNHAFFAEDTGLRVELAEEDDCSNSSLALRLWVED
The experiment in a line: WNK In Vitro Radiometric Assays. The following applies: pH 7.3. As for the experimental part: as §1

Assay [5] concerns the target T3, Serine/threonine-protein kinase WNK1 [1-491]. The experiment in a line: WNK1 Mobility Shift Assay. Particulars: pH 7.5. As for the experimental part: A mixture of fluorescein labeled OSR1 peptide substrate (Toray Research Center, Inc.) and ATP was prepared with final concentrations of 10 and 25 μM, respectively, in 7 μL of reaction buffer [20 mM HEPES Na (pH 7.5), 1 mM MnCl2, 0.01% Tween 20, and 2 mM DTT]. Compounds at final concentrations from 0.003 to 100 μM in 1 μL were added to the peptide/ATP mixture at a final DMSO concentration of 10%. The reaction was initiated by the addition of 2 μL of GST-WNK1 (1−491; Carna Biosciences) that was 86% pure at a final concentration of 25 nM in a 384-well plate. After incubation for 3 h at 25 °C, where 15% conversion of the substrate to the product was observed, 10 μL of a stop buffer containing 0.2% coating-3 reagent with 2 mM EDTA was added. For 800 μM ATP, the WNK1 assay was performed for 50 min at 25 °C, where 15% conversion of the substrate to the product was observed. Aliquots from each well were transferred onto a four-sipper chip on a Labchip3

T3 sequence (Q9H4A3 1-491): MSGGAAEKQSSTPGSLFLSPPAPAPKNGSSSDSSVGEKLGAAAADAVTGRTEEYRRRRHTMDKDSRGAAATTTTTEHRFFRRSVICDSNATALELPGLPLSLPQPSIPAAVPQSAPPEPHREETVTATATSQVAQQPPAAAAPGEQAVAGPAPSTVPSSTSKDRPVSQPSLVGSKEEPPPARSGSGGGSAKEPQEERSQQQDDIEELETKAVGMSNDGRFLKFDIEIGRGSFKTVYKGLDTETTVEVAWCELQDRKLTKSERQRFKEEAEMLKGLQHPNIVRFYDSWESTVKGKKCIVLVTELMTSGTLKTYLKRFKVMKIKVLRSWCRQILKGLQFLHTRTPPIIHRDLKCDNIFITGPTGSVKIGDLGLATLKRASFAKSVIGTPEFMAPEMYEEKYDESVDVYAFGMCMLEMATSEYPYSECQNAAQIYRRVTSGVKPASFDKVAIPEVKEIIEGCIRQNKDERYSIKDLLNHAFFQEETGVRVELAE
T1 sequence (Q96J92 1-444): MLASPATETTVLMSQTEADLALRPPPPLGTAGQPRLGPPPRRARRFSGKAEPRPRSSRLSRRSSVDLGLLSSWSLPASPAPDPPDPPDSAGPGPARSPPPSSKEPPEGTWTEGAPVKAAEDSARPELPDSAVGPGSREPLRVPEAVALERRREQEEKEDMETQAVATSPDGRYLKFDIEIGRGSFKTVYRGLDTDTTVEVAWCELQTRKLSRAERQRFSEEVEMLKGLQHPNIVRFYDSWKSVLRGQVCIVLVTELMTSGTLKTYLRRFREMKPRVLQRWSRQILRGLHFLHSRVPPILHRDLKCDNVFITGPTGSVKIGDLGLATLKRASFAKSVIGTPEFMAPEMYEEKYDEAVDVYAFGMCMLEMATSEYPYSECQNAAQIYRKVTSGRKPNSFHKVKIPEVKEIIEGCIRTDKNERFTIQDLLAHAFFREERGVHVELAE

In the case of `CNc1nc(-c2ccc3c(c2)CCN3C(=O)c2ccccc2OCc2ccc(Cl)cc2)cs1` [(2-((4-Chlorobenzyl)oxy)phenyl)(5-(2-(methylamino)thiazol-4-yl)indolin-1-yl)methanone (Compound 2)], the IC50 – broadly, the concentration that inhibits the measured activity by half – in assay [1] was 187 nM; in assay [2], 50 nM; in assay [3], 64 nM; in assay [4] it was 377 nM; in assay [5] it was 180 nM and 150 nM.
